These results are taken from US20190352691A1, “PATHOGEN DETECTION” (priority 2013, published 2019).

The test system of one experiment is A. baumannii ATCC 17691. The conditions noted are these: cited from earlier work.
A further experiment has as its system Mtb. As to the kind of experiment: anti-tuberculosis activity (whole cell). The class given is cell-based, Mycobacterium tuberculosis.

For `N[C@@H](C(=O)N[C@@H]1C(=O)N2C(C(=O)O)=C(Cl)CC[C@H]12)c1ccccc1` [Lorabid], the “activity against Acinetobacter baumannii” value in the experiment on A. baumannii ATCC 17691 is recorded as “not active”.

Regarding `C[C@@H]1CC[C@H]2[C@@H](C)C(=O)O[C@@H]3O[C@@]4(C)CC[C@@H]1[C@]32OO4` [artemisinin], the activity against tuberculosis result in the experiment on Mtb is “not active”.
